Measurements: US20070031336A1, “3H-phenoxazine derivatives suitable as near-infrared imaging agents, preparation an use thereof” (priority 2003, published 2007)
pKd: −log10 of the molar value.

Legend:
[1] = UV/VIS absorption spectra; type: physicochemical
Experimental: (§1) UV/VIS and fluorescence spectra are recorded and analyzed. For UV/VIS spectra, a Lambda 19 spectrometer from Perkin Elmer equipped with cells of 1.000 cm pathlength is used. The scan rate is 120 nm/min. The fluorescence data are obtained on a Spex Fluorolog (I.S.A.) spectrometer equipped with a cooled R928 detector (Slit 1 mm). Quantum yields are determined by using Cresylviolett (exc. 595 nm, yield=0.54) as standard.

[2] = Fluorescence spectra and quantum yield; type: physicochemical; conditions: for Fluorescence φ (quantum yield): standard Cresylviolett
Experimental: as §1

[3] = target: T1, aggregated Aβ peptide Aβ1-140 (Homo sapiens, UniProt P05067); assay: Binding to aggregated Aβ in solution by differential fluorescence spectroscopy
T1 construct: aggregated Aβ peptide Aβ1-140 in solution
Experimental: (§2) Binding of the agent of the invention (compound Ex. 3) to aggregated Aβ peptide Aβ1-140 in solution is investigated by differential fluorescence spectroscopy and thioflavine displacement. […] Difference spectra are recorded at different concentrations of the agent of the invention (compound Ex. 3) with the magnitude of the fluorescence shift being dependent on the concentration of aggregated Aβ. Saturation is observed at high concentrations of the agent of the invention (compound Ex. 3), and the Kd-value for the agent of the invention (compound Ex. 3) is estimated to be 0.2 μM. In another experiment, aggregated Aβ is incubated with thioflavine T, where fluorescence intensity at 460-560 nm (excitation 445 nm) represents thioflavine bound to aggregated Aβ.

aggregated Aβ = target: T2, aggregated Aβ (Homo sapiens, UniProt P05067); assay: Thioflavine T displacement from aggregated Aβ; type: binding; conditions: fluorescence 460-560 nm, excitation 445 nm
T2 construct: aggregated Aβ peptide Aβ1-140 in solution
Experimental: as §2

AD plaques = assay: In vivo near-infrared imaging in APP23 mice; design: species or system mouse; conditions: female 16-months-old transgenic APP23 mice, 3 mg/kg i.v.
Experimental: For in vivo near-infrared imaging, 10- to 24-months-old transgenic APP23 mice (3≦n≦5) and as control, non-transgenic APP23 mice of the same age (3≦n≦4) are injected intravenously (i.v.) into the tail-vein with 0.1, 1 and 3 mg/kg agent of invention (0.1, 1 and 3 mg/10 ml in 0.9% saline). Images are recorded 30, 60, 120 and 240 min after systemic administration.

[4] = exc. 595 nm; cited from earlier work

T2 sequence (P05067 672-711 limits assumed): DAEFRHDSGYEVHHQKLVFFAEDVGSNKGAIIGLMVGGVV
T1 sequence (P05067 672-711 limits assumed): as above

| SMILES | Absorption ε ([1]; solvent H2O) [I/Mcm] | Absorption λmax ([1]; solvent H2O) [nm] | Absorption ε ([1]; solvent methanol) [I/Mcm] | Absorption λmax ([1]; solvent methanol) [nm] | Absorption λmax ([1]; solvent mouse serum) [nm] | Fluorescence λmax ([2]; solvent H2O) [nm] | Fluorescence φ (quantum yield) ([2]; solvent H2O) [%] | Fluorescence λmax ([2]; solvent methanol) [nm] | Fluorescence φ (quantum yield) ([2]; solvent methanol) [%] | Fluorescence λmax ([2]; solvent mouse serum) [nm] | Fluorescence φ (quantum yield) ([2]; solvent mouse serum) [%] | pKd ([3]; estimated from difference spectra, saturation at high concentrations) | Change of fluorescence spectrum upon β-amyloid binding ([3]; range of 680-720 nm) | Effect on fluorescence of thioflavine bound to aggregated Aβ (aggregated Aβ) | pKd (aggregated Aβ; thioflavine concentrations 0.37 μM-3 μM, read-out: apparent binding constants) | Specific binding to AD plaques (FIG. 1) (AD plaques) | Quantum yield of the standard [4] |
| --- | --- | --- | --- | --- | --- | --- | --- | --- | --- | --- | --- | --- | --- | --- | --- | --- | --- |
| CN1CCOc2cc3c(cc21)Oc1cc2c(cc1=N3)SCC[N+]=2C.[Cl-] [Ex. 4, 4,8-Dimethyl-2,3,9,10-tetrahydro-4H-1,6-dioxa-11-thia-4,13-diaza-8-azonia-pentacen chloride] | 12880 | 665 | 13920 | 659 | 665 | 695 | 12 | 695 | 28 | 695 | 13 |  |  |  |  |  |  |
| CN1CCOc2cc3c(cc21)Oc1cc2c(cc1=N3)OCC[N+]=2C.F[B-](F)(F)F [Ex. 3, 4,8-Dimethyl-3,8,9,10-tetrahydro-2H-1,6,11-trioxa-8,13-diaza-4-azonia-pentacen tetrafluoroborate] | 61930 | 650 | 64570 | 644 | 650 | 670 | 37 | 670 | 61 | 670 | 41 | ~6.70 | slightly reduced fluorescence intensity | concentration-dependent fluorescence reduction | 6.70 to 7.00 | specific binding |  |
| N=c1ccc2nc3c(cc(N)c4ccccc43)oc-2c1 [Cresylviolett] |  |  |  |  |  |  |  |  |  |  |  |  |  |  |  |  | 0.54 |
| CC[N+]1=c2cc3c(cc2CCC1)=Nc1cc2c(cc1O3)N(C)CCO2.[Cl-] [Ex. 2, 8-Ethyl-4-methyl-2,3,4,9,10,11-hexahydro-1,6-dioxa-4,13-diaza-8-azonia-pentacen chloride] | 56700 | 657 | 67430 | 649 | 658 | 677 | 24 | 677 | 61 | 677 | 28 |  |  |  |  |  |  |
